Data reported in patent publication US20210395256A1, “TYROSINE KINASE INHIBITORS, COMPOSITIONS AND METHODS THERE OF” (Betta Pharmaceuticals Co., Ltd., priority 2018, published 2021).

The compounds below were run against TrkA kinase (Homo sapiens, UniProt P04629) (assay: TrkA kinase assay (mobility shift assay)). Conditions: class symbols; read-out: Trk A Kinase IC50.
Chain of TrkA kinase (P04629 33-796): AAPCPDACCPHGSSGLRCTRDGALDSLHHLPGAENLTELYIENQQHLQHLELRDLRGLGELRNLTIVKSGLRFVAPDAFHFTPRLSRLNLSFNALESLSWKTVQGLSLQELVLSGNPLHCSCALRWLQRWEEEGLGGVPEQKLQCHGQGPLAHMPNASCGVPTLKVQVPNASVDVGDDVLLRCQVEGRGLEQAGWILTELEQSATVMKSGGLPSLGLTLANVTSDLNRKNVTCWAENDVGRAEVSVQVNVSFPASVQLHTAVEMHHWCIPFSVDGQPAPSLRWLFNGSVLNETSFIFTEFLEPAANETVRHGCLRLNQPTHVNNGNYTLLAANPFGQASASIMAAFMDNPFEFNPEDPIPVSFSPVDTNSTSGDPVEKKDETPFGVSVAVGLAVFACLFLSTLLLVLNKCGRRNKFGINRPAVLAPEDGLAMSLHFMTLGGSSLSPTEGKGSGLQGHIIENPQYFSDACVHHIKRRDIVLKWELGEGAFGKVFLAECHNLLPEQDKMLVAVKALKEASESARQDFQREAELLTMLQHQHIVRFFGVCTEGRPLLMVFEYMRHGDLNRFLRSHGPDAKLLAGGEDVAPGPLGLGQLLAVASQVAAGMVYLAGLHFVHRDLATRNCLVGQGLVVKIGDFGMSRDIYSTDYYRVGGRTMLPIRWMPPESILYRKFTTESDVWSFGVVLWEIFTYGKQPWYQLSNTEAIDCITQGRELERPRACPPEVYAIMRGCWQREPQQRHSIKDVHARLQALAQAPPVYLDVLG
Format: biochemical
Method in brief: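 Ten-point compound series was preincubated 10 min at room temperature with TrkA, then FAM-peptide plus ATP added in HEPES pH 7.5/Brij-35 buffer and reacted at 28 °C before EDTA quench.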
For `Fc1ccc(F)c([C@H]2CCCN2c2ccn3ncc(-c4nc5cc(F)c(C(F)(F)F)cc5[nH]4)c3n2)c1` [Compound 139, (R)-5-(2-(2,5-difluorophenyl)pyrrolidin-1-yl)-3-(5-fluoro-6-(trifluoromethyl)-1H-benzo[d]imidazol-2-yl)pyrazolo[1,5-a]pyrimidine], the IC50 was > 50 nM. With `CCOc1cc2[nH]c(-c3cnn4ccc(N5CCC[C@@H]5c5cc(F)ccc5F)nc34)nc2cc1C#N` [Compound 140, (R)-2-(5-(2-(2,5-difluorophenyl)pyrrolidin-1-yl)pyrazolo[1,5-a]pyrimidin-3-yl)-6-ethoxy-1H-benzo[d]imidazole-5-carbonitrile] the IC50 was ≤ 10 nM. For `CNc1cc2[nH]c(-c3cnn4ccc(N5CCC[C@@H]5c5cc(F)ccc5F)nc34)nc2cc1C#N` [Compound 142, (R)-2-(5-(2-(2,5-difluorophenyl)pyrrolidin-1-yl)pyrazolo[1,5-a]pyrimidin-3-yl)-6-(methylamino)-1H-benzo[d]imidazole-5-carbonitrile], the IC50 was ≤ 10 nM. With `N#Cc1cc2nc(-c3cnn4ccc(N5CCC[C@@H]5c5cc(F)ccc5F)nc34)[nH]c2cc1N1CCOCC1` [Compound 143, (R)-2-(5-(2-(2,5-difluorophenyl)pyrrolidin-1-yl)pyrazolo[1,5-a]pyrimidin-3-yl)-6-morpholino-1H-benzo[d]imidazole-5-carbonitrile] the IC50 was ≤ 10 nM. In the case of `N#Cc1cc2nc(-c3cnn4ccc(N5CCC[C@@H]5c5cc(F)ccc5F)nc34)[nH]c2cc1N1CC(O)C1` [Compound 145, (R)-2-(5-(2-(2,5-difluorophenyl)pyrrolidin-1-yl)pyrazolo[1,5-a]pyrimidin-3-yl)-6-(3-hydroxyazetidin-1-yl)-1H-benzo[d]imidazole-5-carbonitrile], the IC50 is reported as ≤ 10 nM. `O=C1NCCNc2cc3[nH]c(-c4cnn5ccc(N6CCC[C@@H]6c6cc(F)ccc6F)nc45)nc3cc21` [Compound 146, (R)-2-(5-(2-(2,5-difluorophenyl)pyrrolidin-1-yl)pyrazolo[1,5-a]pyrimidin-3-yl)-5,6,7,8-tetrahydroimidazo[4′,5′:4,5]benzo[1,2-e][1,4]diazepin-9(3H)-one] was tested, and the IC50 was ≤ 10 nM. `O=C1NCCOc2cc3[nH]c(-c4cnn5ccc(N6CCC[C@@H]6c6cc(F)ccc6F)nc45)nc3cc21` [Compound 147, (R)-2-(5-(2-(2,5-difluorophenyl)pyrrolidin-1-yl)pyrazolo[1,5-a]pyrimidin-3-yl)-7,8-dihydro-3H-imidazo[4′,5′:4,5]benzo[1,2-f][1,4]oxazepin-9(6H)-one] was tested, and the IC50 was ≤ 10 nM. In the case of `N#Cc1cc2nc(-c3cnn4ccc(N5CCC[C@@H]5c5cc(F)ccc5F)nc34)[nH]c2cc1O` [Compound 149, (R)-2-(5-(2-(2,5-difluorophenyl)pyrrolidin-1-yl)pyrazolo[1,5-a]pyrimidin-3-yl)-6-hydroxy-1H-benzo[d]imidazole-5-carbonitrile], the IC50 is reported as ≤ 10 nM. For `N#Cc1cc2nc(-c3cnn4ccc(N5CCC[C@@H]5c5cc(F)ccc5F)nc34)[nH]c2cc1OCCO` [Compound 150, (R)-2-(5-(2-(2,5-difluorophenyl)pyrrolidin-1-yl)pyrazolo[1,5-a]pyrimidin-3-yl)-6-(2-hydroxyethoxy)-1H-benzo[d]imidazole-5-carbonitrile], the IC50 was ≤ 10 nM. With `N#Cc1cc2nc(-c3cnn4ccc(N5CCC[C@@H]5c5cc(F)ccc5F)nc34)[nH]c2cc1Br` [Compound 151, (R)-6-bromo-2-(5-(2-(2,5-difluorophenyl)pyrrolidin-1-yl)pyrazolo[1,5-a]pyrimidin-3-yl)-1H-benzo[d]imidazole-5-carbonitrile] the IC50 was ≤ 10 nM. For `COC(=O)c1cc2[nH]c(-c3cnn4ccc(N5CCC[C@@H]5c5cc(F)ccc5F)nc34)nc2cc1C#N` [Compound 152, methyl (R)-5-cyano-2-(5-(2-(2,5-difluorophenyl)pyrrolidin-1-yl)pyrazolo[1,5-a]pyrimidin-3-yl)-1H-benzo[d]imidazole-6-carboxylate], the IC50 was ≤ 10 nM. `N#Cc1cc2nc(-c3cnn4ccc(N5CCC[C@@H]5c5cc(F)ccc5F)nc34)[nH]c2cc1C(=O)O` [Compound 153, (R)-5-cyano-2-(5-(2-(2,5-difluorophenyl)pyrrolidin-1-yl)pyrazolo[1,5-a]pyrimidin-3-yl)-1H-benzo[d]imidazole-6-carboxylic acid] was tested, and the IC50 was ≤ 10 nM. In the case of `N#Cc1cc2nc(-c3cnn4ccc(N5CCC[C@@H]5c5cc(F)ccc5F)nc34)[nH]c2cc1C(N)=O` [Compound 154, (R)-5-cyano-2-(5-(2-(2,5-difluorophenyl)pyrrolidin-1-yl)pyrazolo[1,5-a]pyrimidin-3-yl)-1H-benzo[d]imidazole-6-carboxamide], the IC50 is reported as ≤ 10 nM. `COC(=O)c1c(F)ccc2nc(-c3cnn4ccc(N5CCC[C@@H]5c5cc(F)ccc5F)nc34)[nH]c12` [Compound 158, methyl (R)-2-(5-(2-(2,5-difluorophenyl)pyrrolidin-1-yl)pyrazolo[1,5-a]pyrimidin-3-yl)-6-fluoro-1H-benzo[d]imidazole-7-carboxylate] was tested, and the IC50 was ≤ 10 nM. `Cc1cc2[nH]c(-c3cnn4ccc(N5CCC[C@@H]5c5cc(F)ccc5F)nc34)nc2cc1C#N` [Compound 159, (R)-2-(5-(2-(2,5-difluorophenyl)pyrrolidin-1-yl)pyrazolo[1,5-a]pyrimidin-3-yl)-6-methyl-1H-benzo[d]imidazole-5-carbonitrile] was tested, and the IC50 was ≤ 10 nM. `CN1CCN(c2cc3[nH]c(-c4cnn5ccc(N6CCC[C@@H]6c6cc(F)ccc6F)nc45)nc3cc2C#N)CC1` [Compound 163, (R)-2-(5-(2-(2,5-difluorophenyl)pyrrolidin-1-yl)pyrazolo[1,5-a]pyrimidin-3-yl)-6-(4-methylpiperazin-1-yl)-1H-benzo[d]imidazole-5-carbonitrile] was tested, and the IC50 was ≤ 10 nM. With `N#Cc1cc2nc(-c3cnn4ccc(N5CCC[C@@H]5c5cc(F)ccc5F)nc34)[nH]c2cc1N1CC[C@H](O)C1` [Compound 164, 2-(5-((R)-2-(2,5-difluorophenyl)pyrrolidin-1-yl)pyrazolo[1,5-a]pyrimidin-3-yl)-6-((S)-3-hydroxypyrrolidin-1-yl)-1H-benzo[d]imidazole-5-carbonitrile] the IC50 was ≤ 10 nM. With `N#Cc1cc2nc(-c3cnn4ccc(N5CCC[C@@H]5c5cc(F)ccc5F)nc34)[nH]c2cc1N1CCC[C@H]1C#N` [Compound 165, 6-((S)-2-cyanopyrrolidin-1-yl)-2-(5-((R)-2-(2,5-difluorophenyl)pyrrolidin-1-yl)pyrazolo[1,5-a]pyrimidin-3-yl)-1H-benzo[d]imidazole-5-carbonitrile] the IC50 was ≤ 10 nM. For `CN(C)CCN(C)c1cc2[nH]c(-c3cnn4ccc(N5CCC[C@@H]5c5cc(F)ccc5F)nc34)nc2cc1C#N` [Compound 168, (R)-2-(5-(2-(2,5-difluorophenyl)pyrrolidin-1-yl)pyrazolo[1,5-a]pyrimidin-3-yl)-6-((2-(dimethylamino)ethyl)(methyl)amino)-1H-benzo[d]imidazole-5-carbonitrile], the IC50 was ≤ 10 nM. `CS(=O)(=O)c1ccc2nc(-c3cnn4ccc(N5CCC[C@@H]5c5cc(F)ccc5F)nc34)[nH]c2c1` [Compound 170, (R)-5-(2-(2,5-difluorophenyl)pyrrolidin-1-yl)-3-(6-(methylsulfonyl)-1H-benzo[d]imidazol-2-yl)pyrazolo[1,5-a]pyrimidine] was tested, and the IC50 was ≤ 10 nM. With `COc1cc2oc(-c3cnn4ccc(N5CCC[C@@H]5c5cc(F)ccc5F)nc34)nc2cc1C#N` [Compound 174, (R)-2-(5-(2-(2,5-difluorophenyl)pyrrolidin-1-yl)pyrazolo[1,5-a]pyrimidin-3-yl)-6-methoxybenzo[d]oxazole-5-carbonitrile] the IC50 was ≤ 10 nM. `COC(=O)c1ccc(F)c2nc(-c3cnn4ccc(N5CCC[C@@H]5c5cc(F)ccc5F)nc34)oc12` [Compound 175, methyl (R)-2-(5-(2-(2,5-difluorophenyl)pyrrolidin-1-yl)pyrazolo[1,5-a]pyrimidin-3-yl)-4-fluorobenzo[d]oxazole-7-carboxylate] was tested, and the IC50 was ≤ 10 nM. Compound `N#Cc1cc2nc(-c3cnn4ccc(N5CCC[C@@H]5c5cc(F)ccc5F)nc34)oc2cc1OC(F)(F)F` [Compound 176, (R)-2-(5-(2-(2,5-difluorophenyl)pyrrolidin-1-yl)pyrazolo[1,5-a]pyrimidin-3-yl)-6-(trifluoromethoxy)benzo[d]oxazole-5-carbonitrile] has an IC50 of 10 to 50 nM.

Same assay, conditions: numeric values; read-out: Trk A Kinase IC50
For `COC(=O)c1cc2[nH]c(-c3cnn4ccc(N5CCC[C@@H]5c5cc(F)ccc5F)nc34)nc2c(F)c1F` [Compound 137, methyl (R)-2-(5-(2-(2,5-difluorophenyl)pyrrolidin-1-yl)pyrazolo[1,5-a]pyrimidin-3-yl)-4,5-difluoro-1H-benzo[d]imidazole-6-carboxylate], the IC50 was 2.65 nM. Work on `O=C(O)c1cc2[nH]c(-c3cnn4ccc(N5CCC[C@@H]5c5cc(F)ccc5F)nc34)nc2c(F)c1F` [Compound 138, (R)-2-(5-(2-(2,5-difluorophenyl)pyrrolidin-1-yl)pyrazolo[1,5-a]pyrimidin-3-yl)-4,5-difluoro-1H-benzo[d]imidazole-6-carboxylic acid] yielded an IC50 of 0.48 nM. `N#Cc1cc2[nH]c(-c3cnn4ccc(N5CCC[C@@H]5c5cc(F)ccc5F)nc34)nc2cc1C(F)(F)F` [Compound 157, (R)-2-(5-(2-(2,5-difluorophenyl)pyrrolidin-1-yl)pyrazolo[1,5-a]pyrimidin-3-yl)-5-(trifluoromethyl)-1H-benzo[d]imidazole-6-carbonitrile] gave an IC50 of 27 nM. With `COc1cc2[nH]c(-c3cnn4ccc(N5CCC[C@@H]5c5cc(F)ccc5F)nc34)nc2cc1C(=O)N(C)C` [Compound 161, (R)-2-(5-(2-(2,5-difluorophenyl)pyrrolidin-1-yl)pyrazolo[1,5-a]pyrimidin-3-yl)-6-methoxy-N,N-dimethyl-1H-benzo[d]imidazole-5-carboxamide] the IC50 was 0.9 nM. For `N#Cc1cc2nc(-c3cnn4ccc(N5CCC[C@@H]5c5cc(F)ccc5F)nc34)oc2cc1O` [Compound 177, (R)-2-(5-(2-(2,5-difluorophenyl)pyrrolidin-1-yl)pyrazolo[1,5-a]pyrimidin-3-yl)-6-hydroxybenzo[d]oxazole-5-carbonitrile], the IC50 was 1.2 nM.
